The nature of series [1]: Reduction of food intake in fasted mice after i.p. injection of peptide. The format is in vivo, NIH/Swiss mice. From the text: In yet another embodiment, the ET receptor agonist is adenoregulin. See, e.g., Donly et al., Proc. Natl. Acad. Sci. USA 89:10960-963 (1992); Amiche et al., Biochem. Biophys. Res. Comm. 191:983-90 (1993). Known sequences for adenoregulin include Genbank sequences X70278 and X72387. Originally isolated from the skin of the frog Phyllomedusa bicolor, adenoregulin belongs to the family of dermaseptins, a family of antimicrobial peptides. See, e.g., Amiche et al., J. Biol. Chem. 269:17847-52 (1994); Zhou et al., Biotechnol. Lett. 27:725-30 (2005).
Materials & Methods: NIH/Swiss mice were fasted approximately 17 hours prior to initiation of the experiment. Peptides were injected intraperitoneally (i.p.) at time zero using doses as indicated. All mice received an intraperitoneal injection (200 μl) of either vehicle or compounds at doses indicated and were immediately presented with a pre-weighed food pellet. The food pellet was weighed at 30-minute, 1-hr, and 2-hr intervals after presentation to determine the amount of food eaten. Each point reflects n=4 for mice receiving an endothelin or endothelin agonist or n=3 for mice receiving vehicle.
Food intake values reflect, at each time point, effect of test sample on food intake is expressed as % change relative to vehicle using the formula provided below.
% basal=−100*[1−(food intake of treatment group/food intake of vehicle group)].
Significant test sample effects were identified by ANOVA (p<0.05). Where a significant difference exists, test means were compared to the control mean using Dunnett's test. One-way ANOVA with Dunnett's post test was performed using GraphPad Prism® version 3.01 for Windows, GraphPad Software, San Diego, Calif. USA.

A short description of series [2]: Body weight and body fat in diet induced obese (DIO) mice, continuous s.c. osmotic pump infusion. The series is classed as in vivo. As to the method: Materials & Methods: Diet induced obese (DIO) mice were employed. Obesity was induced by feeding a pelleted high-fat diet (58% of calories, #D12331, Research Diets, New Brunswick, N.J.) starting at 4 wk of age (20) for 6 wk (4 wk for the long-term study) prior to treatment. The mice then remained on this diet in powdered form throughout the treatment period unless otherwise noted. All animals were housed under a 12 hr:12 hr light-dark cycle at 21-23° C., and allowed ad libitum access to food pre- and post-treatment. […] (20 nmol/kg/d), or adenoregulin [SEQ ID NO: 33] (300 nmol/kg/d) were administered to DIO mice by Alzet® s.c. osmotic pumps. Mice were fed pelleted high-fat diet, and body weights and food intake were recorded weekly.
Body weight (BWt), at each time point, reflects the effect of test sample on BWt when expressed as % change relative to vehicle treated. For a treatment group:
% BWt loss=100*[(mean BWt change vehicle treated)−(mean BWt change treated)/mean BWt at day 0]
[…]
Significant test sample effects were identified by ANOVA (p<0.05). Where a significant difference exists, test means were compared to the control mean using Dunnett's test. One-way ANOVA with Dunnett's post test was performed using GraphPad Prism® version 3.01 for Windows, GraphPad Software, San Diego Calif.

The target in another series is T1, ETA (Homo sapiens, UniProt P25101).
T1 sequence (P25101 21-427): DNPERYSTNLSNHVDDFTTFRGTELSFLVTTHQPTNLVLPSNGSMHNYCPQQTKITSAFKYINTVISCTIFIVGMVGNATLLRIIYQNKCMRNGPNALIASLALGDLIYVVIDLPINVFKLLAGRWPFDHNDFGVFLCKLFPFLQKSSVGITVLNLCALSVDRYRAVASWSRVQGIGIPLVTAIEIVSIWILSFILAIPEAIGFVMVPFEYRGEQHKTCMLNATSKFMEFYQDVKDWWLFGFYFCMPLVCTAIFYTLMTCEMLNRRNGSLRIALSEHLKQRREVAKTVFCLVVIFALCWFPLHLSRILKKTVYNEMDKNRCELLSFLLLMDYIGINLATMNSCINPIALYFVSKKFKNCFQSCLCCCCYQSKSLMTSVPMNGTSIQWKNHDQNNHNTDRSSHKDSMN
The note with it: read-out: affinity for ETA; cited from earlier work.

Entries after “also recorded” stand apart in the source; their conditions may differ. Where a SMILES comes first, the peptide text is derived from it. Bridges are numbered along the chain shown (N, C = ends). Where no end group is shown, it is not given here.

Consider “64 (GMWGSLLKGVATVVKHVLPHALSSQQS-OH) [compound 64]”, for which the “% Inhibition of FI at 120 mi” value in series [1] (food intake (FI) at 120 min, dose not given) is 22.0%.

For the compound `CC[C@H](C)[C@H](NC(=O)[C@H](CC(=O)O)NC(=O)[C@H](CC(C)C)NC(=O)[C@H](Cc1cnc[nH]1)NC(=O)[C@@H]1CSSC[C@H](N)C(=O)N[C@@H](CO)C(=O)N[C@H]2CSSC[C@H](NC(=O)[C@H](CCC(=O)O)NC(=O)[C@H](CCCCN)NC(=O)[C@H](CC(=O)O)NC(=O)[C@H](CCSC)NC(=O)[C@H](CC(C)C)NC(=O)[C@H](CO)NC(=O)[C@H](CO)NC2=O)C(=O)N[C@@H](C(C)C)C(=O)N[C@@H](Cc2ccc(O)cc2)C(=O)N[C@@H](Cc2ccccc2)C(=O)N1)C(=O)N[C@H](C(=O)N[C@@H](Cc1c[nH]c2ccccc12)C(=O)O)[C@@H](C)CC` [ET-1, reference compound], the sickness behavior result in series [2] (DIO mice, 20 nmol/kg/d continuously infused) was “without observable sickness behavior”. Also, the observable negative effects result in series [1] (fasted mice, i.p.) is recorded as “without observable negative effects”.

`CC[C@H](C)[C@H](NC(=O)[C@H](CC(=O)O)NC(=O)[C@H](CC(C)C)NC(=O)[C@H](Cc1cnc[nH]1)NC(=O)[C@@H]1CSSC[C@H](N)C(=O)N[C@@H](CO)C(=O)N[C@H]2CSSC[C@H](NC(=O)[C@H](CCC(=O)O)NC(=O)[C@H](CCCCN)NC(=O)[C@H](CC(=O)O)NC(=O)[C@H](CC(C)C)NC(=O)[C@H](Cc3c[nH]c4ccccc34)NC(=O)[C@H](CO)NC(=O)[C@H](CO)NC2=O)C(=O)N[C@@H](C(C)C)C(=O)N[C@@H](Cc2ccc(O)cc2)C(=O)N[C@@H](Cc2ccccc2)C(=O)N1)C(=O)N[C@H](C(=O)N[C@@H](Cc1c[nH]c2ccccc12)C(=O)O)[C@@H](C)CC` [ET-2, reference compound] (H-CSCSSWLDKECVYFCHLDIIW-OH; disulfide 1-15, 3-11): the observable negative effects entry in series [1] (fasted mice, i.p.) is “without observable negative effects”.

As for `CC[C@H](C)[C@H](NC(=O)[C@H](CC(=O)O)NC(=O)[C@H](CC(C)C)NC(=O)[C@H](Cc1c[nH]cn1)NC(=O)[C@@H]1CSSC[C@H](N)C(=O)N[C@@H]([C@@H](C)O)C(=O)N[C@H]2CSSC[C@H](NC(=O)[C@H](CCC(=O)O)NC(=O)[C@H](CCCCN)NC(=O)[C@H](CC(=O)O)NC(=O)[C@H](CCCCN)NC(=O)[C@H](Cc3ccc(O)cc3)NC(=O)[C@H]([C@@H](C)O)NC(=O)[C@H](Cc3ccccc3)NC2=O)C(=O)N[C@@H](C(C)C)C(=O)N[C@@H](Cc2ccc(O)cc2)C(=O)N[C@@H](Cc2ccc(O)cc2)C(=O)N1)C(=O)N[C@H](C(=O)N[C@@H](Cc1c[nH]c2ccccc12)C(=O)O)[C@@H](C)CC` [ET-3, reference compound], at ETA, the Kd was 6.5 nM. For the same compound, the observable negative effects result in series [1] (fasted mice, i.p.) is “without observable negative effects”.

“GLWSKIKEVGKEAAKAAAKAAGKAALGAVSEAV-NH2 [SEQ ID NO 33]”: the body weight entry in series [2] (DIO mice on high fat diet, 300 nmol/kg/d, infused continuously 2-4 weeks (28 days), listed as adenoregulin) is given as “sustained weight reducing effect; also recorded: reduction of body weight”. Moreover, in series [2] (DIO mice on high fat diet, 300 nmol/kg/d, vs vehicle on high-fat or low-fat diet, listed as adenoregulin), the body fat result is on record as “reduction in body fat; also recorded: reduction of body fat”. Also, in series [1] (rodents, doses estimated to be less than those exerting antibiotic effects), the food intake result is “inhibited food intake”.

As to “N-Succinyl-[Glu^9, Ala^11,15]-Endothelin 1 fragment 8-21 [IRL1620, reference compound]”, in series [1] (fasted mice, i.p., 30 minutes), the “food intake at 30 minutes” value was “reduced food intake”. Also, in series [1] (fasted mice, i.p., 60 minutes), the “food intake at 60 minutes” value was “reduced food intake”. In series [1] (fasted mice, i.p., 120 minutes), the “food intake at 120 minutes” value is reported as “no effect”.

Take “c(CTCNDMTDEECLNFCHQDVIW)-OH [Sarafotoxin S6c, reference compound]”: the “reduction in food intake” value in series [1] (fasted mice, peripheral (i.p.) administration, all time points examined (30, 60, 120 min)) was “dose-dependent reduction in food intake”.
